In patent publication US7999132B2, “Anthranilic acid derivative or salt thereof” (Toyama Chemical Co., Ltd., priority 2004, dated 2011):

What was measured:
[1] = tested on: DBA/1J mice; experiment: Type II Collagen-induced Arthritis in Mice; format: in vivo; settings: 30 mg/kg orally once a day from the 21st day to the 35th day, male DBA/1J mice
Description: Type II Collagen-induced Arthritis in Mice
Eight-week old male DBA/1J mice were used (Charles River Laboratories Japan Inc.). 4 mg/mL bovine type II collagen (Collagen Gijutsu Kenshukai) dissolved in 0.01 mol/L of acetic acid aqueous solution and an equal amount of Freund's complete adjuvant (Chondorex) containing 1 mg/mL of killed tuberculosis bacillus were added to prepare an emulsion, and 0.1 mL thereof was intradermally injected at the base of tail. Similar treatment was conducted on the 21st day to cause arthritis. The test compound was suspended in 0.5% methylcellulose aqueous solution, and 30 mg/kg was orally administered once a day from the 21st day to the 35th day. In the control group, 0.5% methylcellulose aqueous solution was administered in the same manner. The severity of arthritis was estimated by scoring at zero point for an animal without change; one point for an animal with swelling at the one or two finger joint or light swelling only at the carpal or tarsal joint; two points for an animal with severe swelling at the carpal or tarsal joint or with swelling at three or more finger joints; three points for an animal with severe swelling along the whole foreleg or hindleg and thus counting 12 points at the maximum for the four limbs as arthritis score. […] The inhibitory rate was determined by the following expression. […]

[2] = tested on: MMP-13; experiment: MMP-13 Production Inhibition Test; format: cell-based, human; settings: Homo sapiens; 30 μmol/L; SW1353 cells stimulated with IL-1β 10 ng/mL; MMP-13 in culture supernatant by ELISA 16 hours after stimulation; read-out: Inhibition rate (%) at 30 μmol/L
Description: MMP-13 Production Inhibition Test
6.8×10^3 human cartilage derived cell line SW1353 cells were suspended in 100 μL of Dulbecco modified Eagle's medium supplemented with 10% fetal calf serum, plated on 96-well plates and cultured for 3 days. After the culture medium was changed to Dulbecco modified Eagle's medium containing 0.2% lactalbumin hydrolysate and the cells were cultured for 6 hours, […] were added and then IL-1β was added to obtain the final concentration of 10 ng/mL 1 hour later. 16 hours after the stimulation, supernatant was collected and the amount of MMP-13 in the culture supernatant was determined with an ELISA kit (Amersham). The inhibition rate was calculated from the amount of MMP-13 in the presence of a test compound assuming that the amount of MMP-13 was 100% in the absence of the test compound.

## O=C(Nc1cc(CCc2ccccc2)ccc1C(=O)O)c1ccccc1 [Example 25, 2-(benzamido)-4-phenethylbenzoic acid]
[1]; X-ray of the four limbs on the 36th day
  inhibitory action on bone destruction (bone destruction score): exhibited inhibitory action
[1]
  inhibitory action on arthritis (arthritis score): exhibited inhibitory action
[2]
  inhibition at 30 µM: 86%

## O=C(Nc1cc(-c2ccccc2)ccc1C(=O)O)c1cccc(-c2ccccc2)c1 [Example 512, 2-(Biphenyl-3-carboxamido)-4-phenylbenzoic acid]
[2]
  inhibition at 30 µM: 99%

## CC(=O)c1cccc(C(=O)Nc2cc(-c3ccccc3)ccc2C(=O)O)c1 [Example 514, 2-(3-Acetylbenzamido)-4-phenylbenzoic acid]
[2]
  inhibition at 30 µM: 91%

## O=C(Nc1cc(CCc2ccccc2)ccc1C(=O)O)c1ccc(N2CCCCC2)nc1 [Example 525, 4-phenethyl-2-(6-(piperidin-1-yl)pyridine-3-carboxamido)benzoic acid]
[2]
  inhibition at 30 µM: 87%

## O=C(Nc1cc(Oc2cc(F)cc(F)c2)ccc1C(=O)O)c1ccccc1 [Example 539, 2-(benzamido)-4-(3,5-difluorophenoxy)benzoic acid]
[2]
  inhibition at 30 µM: 97%

## Cc1cccc(Oc2ccc(C(=O)O)c(NC(=O)c3ccccc3)c2)c1C [Example 541, 2-(Benzamido)-4-(2,3-dimethylphenoxy)benzoic acid]
[2]
  inhibition at 30 µM: 97%

## COc1cccc(Oc2ccc(C(=O)O)c(NC(=O)c3ccccc3)c2)c1 [Example 543, 2-(Benzamido)-4-(3-methoxyphenoxy)benzoic acid]
[2]
  inhibition at 30 µM: 85%

## O=C(Nc1cc(Oc2cccc(Cl)c2)ccc1C(=O)O)c1ccccc1 [Example 551, 2-(benzamido)-4-(3-chlorophenoxy)benzoic acid]
[2]
  inhibition at 30 µM: 86%

## O=C(Nc1cc(Oc2ccc(F)cc2)ccc1C(=O)O)c1ccccc1 [Example 560, 2-(Benzamido)-4-(4-fluorophenoxy)benzoic acid]
[2]
  inhibition at 30 µM: 85%

## Cc1cccc(C)c1Oc1ccc(C(=O)O)c(NC(=O)c2ccccc2)c1 [Example 564, 2-(Benzamido)-4-(2,6-dimethylphenoxy)benzoic acid]
[2]
  inhibition at 30 µM: 97%

## O=C(Nc1cc(Oc2ccc(C(F)(F)F)cc2)ccc1C(=O)O)c1ccccc1 [Example 570, 2-(Benzamido)-4-(4-(trifluoromethyl)phenoxy)benzoic acid]
[2]
  inhibition at 30 µM: 98%
